These results are taken from US6667387B1, “HCV core peptides” (priority 1992, dated 2003).

Test [1] relates to antibodies in sera from HCV-seropositive donors. The test can be described thus: ELISA with HCV antibody-positive sera (biotinylated peptides on streptavidin- or avidin-coated plates, unbiotinylated peptides coated directly). In kind it is binding, human. To be noted: for PEPTIDE ELISA (O.D.): Table 12, biotinylated 20-mers. The protocol:
(§1) Where peptides were to be coated directly, stock solutions of the peptides were diluted in sodium carbonate buffer, pH 9.6 and used to coat polystyrene microtiter plates at a peptide concentration of 2 to 5 micrograms per milliliter for 1 hour at 37° C.
(§2) In cases where biotinylated peptides were to be evaluated, plates were first coated with streptavidin in sodium carbonate buffer, pH 9.6 at a concentration of 3 micrograms per milliliter for 1 hour at 37° C. The plates were then washed to remove excess, unbound protein. A working solution of the biotinylated peptide at 1 microgram per milliliter in sodium carbonate buffer was then added to the wells of the microtiter plate and incubated for 1 hours at 37° C.
(§3) Once the plates had been coated with antigen, any remaining free binding sites on the plastic were blocked with casein. After washing, a dilution of the appropriate antisera, usually 1:100, was added to the wells of the plates and incubated for 1 hour at 37° C.
(§4) After washing to remove unbound material, specific antibody binding was detected by incubating the plates with goat anti-human immunoglobulin antibodies conjugated to the enzyme horseradish peroxidase. Following removal of unbound conjugate by washing, a solution containing H2O2 and 3,3′,5,5′-tetramethylbenzidine was added.
(§5) Reactions were stopped after a suitable interval by addition of sulfuric acid. […] Absorbance measurements were made at a wavelength of 450 nanometers and all data are expressed as an optical density value at this wavelength.
The unbiotinylated peptides were adsorbed onto the wells of polystyrene microtiter plates at a concentration of 3 micrograms per milliliter.
The biotinylated peptides were bound at a concentration of 1 microgram per milliliter to streptavidin-coated microtiter plates. Sera known to contain antibodies to these peptides were used for the evaluation and were tested at a 20-fold dilution.
To investigate further the enhanced antibody recognition of biotinylated HCV peptides bound to streptavidin or avidin as compared to direct adsorption on plastic, the influence of peptide coating concentration was investigated. Three peptides (HCV peptides II, XI, and XVI) were coated in concentrations ranging from 10 nanograms per milliliter to 3 micrograms per milliliter in a volume of 200 microliters per microtiter plate well. For direct coating, the unbiotinylated versions of these peptides were used. The biotinylated versions of these peptides were used to coat wells to which streptavidin had previously been adsorbed. Sera known to contain antibodies to these peptides were used at a dilution of 1 to 100 to evaluate the magnitude of antibody binding.
(§6) Unbiotinylated HCV peptide I was coated directly onto the wells of a polystyrene ELISA plate at a concentration of 3 micrograms per milliliter in sodium carbonate buffer, pH 9.6. Biotinylated HCV peptide I was bound to streptavidin-coated wells using a stock solution containing the peptide at a concentration of 1 microgram per milliliter. The resulting plates were then incubated in parallel with a panel of sera from HCV-seropositive donors. […] Two of the sera (8326 and 8244) recognize the biotinylated version of this peptide far better than the unbiotinylated version. The specificity of the antibody reaction is also reflected by the low optical density values obtained for 5 serum samples from uninfected donors (F88, F89, F76, F136, and F6).
To determine how well biotinylated peptides would function in a mixture when bound to streptavidin- or avidin-coated plates, two mixtures were made of the N-terminally biotinylated versions of the HIV-1 peptides TM-HIV-1 (hereabove referred to as 1a.1) and V3-nm (hereabove referred to as 1b.4), the HIV-2 peptide TM-HIV-2 (hereabove referred to as 2a), and the hepatitis C virus peptides II, IX, and XVIII. […]
For orientation: In an ELISA, binding on a coated surface is turned into a signal by an enzyme label.

Test [2] is described as follows: ELISA with seronegative / negative control sera (specificity). The format is binding, human. The protocol:
as §1, §2, §3, §4, §5, §6
To determine how well biotinylated peptides would function in a mixture when bound to streptavidin- or avidin-coated plates, two mixtures were made of the N-terminally biotinylated versions of the HIV-1 peptides TM-HIV-1 (hereabove referred to as 1a.1) and V3-nm (hereabove referred to as 1b.4), the HIV-2 peptide TM-HIV-2 (hereabove referred to as 2a), and the hepatitis C virus peptides II, IX, and XVIII. Mixture A contained each of the six biotinylated peptides at a concentration of 1 microgram per milliliter (6 micrograms per milliliter peptide, total) while in mixture B, each peptide was present at a concentration of 0.1 microgram per milliliter (0.6 microgram per milliliter peptide, total). The individual peptides were coated at a concentration of 1 microgram per milliliter. For purposes of comparison, mixtures A and B were also coated directly onto the wells of a microtiter plate. Samples from HIV-1, HIV-2, and HCV-seropositive donors were tested and compared to sera from seronegative blood donors. A cut-off absorbance value of 0.250 was used to determine whether a reaction was positive or negative. Absorbance values equal or greater than 0.250 were considered positive while absorbance values below this value were considered negative.

[3] abbreviates: Table 4D, serum 8241, 20-fold dilution.
The mark [4] stands for this setting: Table 4D, serum 8242, 20-fold dilution.
[5] abbreviates: Table 4D, serum 8243, 20-fold dilution.
[6] abbreviates: Table 4D, serum 8247, 20-fold dilution.
Where [7] appears, read: Table 4D, serum 8248, 20-fold dilution.
[8] abbreviates: Table 4D, serum 8250, 20-fold dilution.
Where [9] appears, read: Table 4D, serum 8271, 20-fold dilution.
The mark [10] stands for this setting: Table 4D, serum 8272, 20-fold dilution.
Where [11] appears, read: Table 4D, serum 8273, 20-fold dilution.
Setting [12] is: Table 4D, serum 8274, 20-fold dilution.
The mark [13] stands for this setting: Table 4D, serum 8275, 20-fold dilution.
The mark [14] stands for this setting: Table 4D, serum 8276, 20-fold dilution.
[15] abbreviates: Table 4D, serum 8277, 20-fold dilution.

Ends that are not written are not given here. * marks the point of attachment. Biotin = O=C1N[C@H]2[C@H](CS[C@H]2CCCCC(=O)*)N1

For “RNTNRRPQDVKFPGGGQIVG [listing 1 of 2 here]”, the “optical density (450 nm)” value was 2.066 in test [1] (setting [3]); 2.197 in test [1] (setting [4]); 2.368 in test [1] (setting [5]); 2.398 in test [1] (setting [6]); 2.918 in test [1] (setting [7]); 2.626 in test [1] (setting [8]). Moreover, the “optical density (450 nm)” value in test [1] (setting [9]) was 2.066; in test [1] (setting [10]), 2.638; in test [1] (setting [11]), 2.697; in test [1] (setting [12]), 2.905; in test [1] (setting [13]) it was 2.640; in test [1] (setting [14]), 2.674. The “optical density (450 nm)” value was determined as 2.327 in test [1] (setting [15]) and 0.06 in test [2] (Table 4D, negative serum). In addition, the “PEPTIDE ELISA (O.D.)” value in test [1] (serum 0843) was determined as 2.368; in test [1] (serum 8240) it was 2.918; in test [1] (serum 8241) it was 2.066; in test [1] (serum 8242), 2.197; in test [1] (serum 8332), 2.054; in test [1] (serum 8339), 2.765. The “PEPTIDE ELISA (O.D.)” value was determined as 2.135 in test [1] (serum 8350), 2.368 in test [1] (serum 8377), 2.369 in test [1] (serum 8378) and 2.463 in test [1] (serum 8388).

For the substance “H2N-Met-Ser-Thr-Ile-Pro-Lys-Pro-Gln-Arg-Lys-Thr-Lys-Arg-Asn-Thr-Asn-Arg-Arg-Pro-Gln-Gly-Gly-Lys (Bio)-CONH2 (H-MSTIPKPQRKTKRNTNRRPQGGK(Biotin)-NH2; SMILES CC[C@H](C)[C@H](NC(=O)[C@@H](NC(=O)[C@H](CO)NC(=O)[C@@H](N)CCSC)[C@@H](C)O)C(=O)N1CCC[C@H]1C(=O)N[C@@H](CCCCN)C(=O)N1CCC[C@H]1C(=O)N[C@@H](CCC(N)=O)C(=O)N[C@@H](CCCNC(=N)N)C(=O)N[C@@H](CCCCN)C(=O)N[C@H](C(=O)N[C@@H](CCCCN)C(=O)N[C@@H](CCCNC(=N)N)C(=O)N[C@@H](CC(N)=O)C(=O)N[C@H](C(=O)N[C@@H](CC(N)=O)C(=O)N[C@@H](CCCNC(=N)N)C(=O)N[C@@H](CCCNC(=N)N)C(=O)N1CCC[C@H]1C(=O)N[C@@H](CCC(N)=O)C(=O)NCC(=O)NCC(=O)N[C@@H](CCCCNC(=O)CCCC[C@@H]1SC[C@@H]2NC(=O)N[C@@H]21)C(N)=O)[C@@H](C)O)[C@@H](C)O) [HCV peptide I carboxy-biotinylated]”, the “optical density (450 nm)” value in test [1] (Table 7, serum 6378, HCV antibody-positive) came out at 2.531; in test [1] (Table 7, serum 8242, HCV antibody-positive) it was 2.389; in test [1] (Table 7, serum 8243, HCV antibody-positive) it was 2.541; in test [1] (Table 7, serum 8244, HCV antibody-positive) it was 1.399; in test [1] (Table 7, serum 8248, HCV antibody-positive), 2.493; in test [1] (Table 7, serum 8316, HCV antibody-positive), 2.541. For the same substance, the “optical density (450 nm)” value in test [1] (Table 7, serum 8318, HCV antibody-positive) was 2.404; in test [1] (Table 7, serum 8320, HCV antibody-positive), 2.762; in test [1] (Table 7, serum 8326, HCV antibody-positive), 1.775; in test [1] (Table 7, serum 8329, HCV antibody-positive), 2.672; in test [1] (Table 7, serum 8330, HCV antibody-positive), 2.651; in test [1] (Table 7, serum 8333, HCV antibody-positive), 2.545. In addition, the “optical density (450 nm)” value was 2.549 in test [1] (Table 7, serum 8334, HCV antibody-positive); 2.016 in test [1] (Table 7, serum 8336, HCV antibody-positive); 2.010 in test [1] (Table 7, serum 8344, HCV antibody-positive); 2.705 in test [1] (Table 7, serum 8364, HCV antibody-positive); 2.151 in test [1] (Table 7, serum 8374, HCV antibody-positive); 2.628 in test [1] (Table 7, serum 8387, HCV antibody-positive). The “optical density (450 nm)” value in test [2] (Table 7, serum F8, HCV antibody-negative) turned out to be 0.000; in test [2] (Table 7, serum F76, HCV antibody-negative), 0.022; in test [2] (Table 7, serum F88, HCV antibody-negative), 0.026; in test [2] (Table 7, serum F89, HCV antibody-negative), 0.001; in test [2] (Table 7, serum F136, HCV antibody-negative), 0.002.

Consider “RNTNRRPQDVKFPGGGQIVG [listing 2 of 2 here]”, for which the “optical density (450 nm)” value in test [1] (setting [3]) stood at 1.219; in test [1] (setting [4]), 1.976; in test [1] (setting [5]), 1.859; in test [1] (setting [6]) it was 1.072; in test [1] (setting [7]) it was 2.742; in test [1] (setting [8]) it was 2.471. Further, the “optical density (450 nm)” value in test [1] (setting [9]) is given as 1.471; in test [1] (setting [10]) it was 2.471; in test [1] (setting [11]) it was 1.543; in test [1] (setting [12]), 2.503; in test [1] (setting [13]) it was 1.595; in test [1] (setting [14]) it was 1.976. For the same substance, the “optical density (450 nm)” value in test [1] (setting [15]) turned out to be 0.735; in test [2] (Table 4D, negative serum) it was 0.050.

With SQHLPYIEQGMMLAEQFKQK, the “optical density (450 nm)” value is reported as 1.971 in test [1] (Table 4A, serum 2, 20-fold dilution); 2.086 in test [1] (Table 4A, serum 3, 20-fold dilution); 1.976 in test [1] (Table 4A, serum 4, 20-fold dilution); 0.518 in test [1] (Table 4A, serum 6, 20-fold dilution); 2.624 in test [1] (Table 4A, serum 8, 20-fold dilution); 2.321 in test [1] (Table 4A, serum 10, 20-fold dilution). Further, the “optical density (450 nm)” value is reported as 2.378 in test [1] (Table 4A, serum 11, 20-fold dilution); 2.503 in test [1] (Table 4A, serum 23, 20-fold dilution); 2.104 in test [1] (Table 4A, serum 31, 20-fold dilution); 1.857 in test [1] (Table 4A, serum 33, 20-fold dilution); 2.180 in test [1] (Table 4A, serum 49, 20-fold dilution); 0.159 in test [1] (Table 4A, serum 77, 20-fold dilution). For the same substance, the “optical density (450 nm)” value in test [2] (Table 4A, negative serum) came to 0.095. Besides, the “PEPTIDE ELISA (O.D.)” value in test [1] (serum 0843) is recorded as 2.268; in test [1] (serum 8240), 0.182; in test [1] (serum 8241), 2.280; in test [1] (serum 8242), 1.625; in test [1] (serum 8332) it was 0.575; in test [1] (serum 8339) it was 0.043. In addition, the “PEPTIDE ELISA (O.D.)” value in test [1] (serum 8350) turned out to be 0.623; in test [1] (serum 8377), 2.227; in test [1] (serum 8378), 1.449; in test [1] (serum 8388), 1.018. Further, the “antibody binding to the 20-mers” value in test [1] (serum 8241) is on record as “very strong”.
